Experimental data from patent publication US20100035755A1, “METHOD OF CONTROLLING WEEDS IN A TURF GRASS BY USING SULFONYLUREA COMPOUNDS” (Moghu Research Center Ltd., priority 2008, published 2010).
Entries after “also recorded” stand apart in the source; their conditions may differ.

Experiments:
Perennial rye grass = experiment: Turf grass selectivity, greenhouse pot test; type: in vivo
Excerpt: (§1) Turf mats of Zoysia grass, bentgrass, Kentucky bluegrass, or perennial rye grass known as cool season turfgrass or western grass were purchased and cut into a piece having 10 cm×20 cm size. Then, each piece was transplanted in a rectangular plastic pot (surface area of 300 cm^2) in which sandy loam and mixed top soil (Boo-Nong Top Soil No. 3, for horticultural use) are filled in 1:1 ratio. After the transplantation, the grasses were cut once a week to maintain the blade height at 0.5-1.0 cm and cultivated for one month in a green house of which temperature was kept at 25˜30° C. for daytime and 15˜25° C. for nighttime, respectively. Then, the ‘test chemical’ of the above Examples 1 and 2 or ‘control chemical’ was applied thereto in an amount of 400, 200, 100, 50, 25, 12, 6, 3 g ai/ha. As a “control chemical”, pyrazolsulfuron ethyl wettable agent (manufactured by Dongbu Fine Chemicals; herein after, referred to as ‘control chemical No. 1’) and flazasulfuron (manufactured by Dongbu HiTek; herein after, referred to as ‘control chemical No. 2’), both sulfonylurea herbicides for a turf grass, were used. Application was carried out by using a track sprayer (R&D Sprayer, USA) equipped with Teejet 8002 nozzle (Spraying Systems Co., USA), and the application amount was adjusted to 2,000 L/ha, which is a typical application amount for a golf course in Korea. Application solution was prepared by diluting the “test chemical” or the “control chemical” with tap water. […] The test was repeated three times in a random arrangement and the results are given in average value of each test (see Table 2 below).

Zoysia japonica = experiment: Turf grass selectivity, greenhouse pot test; type: in vivo; conditions: for phytotoxicity (visual assessment 0-10): Zoysia japonica
Excerpt: as §1

Dandelion = experiment: Weed spectrum, greenhouse pot test; type: in vivo; conditions: two weeks after application
Viola arvensis = experiment: Actual field condition test of Example 2 (turf grass field); type: in vivo; conditions: 50 g ai/ha
Protocol: The test chemical of the Example 2 was applied to a turf grass field, in which Viola arvensis as a representative hard-to-control perennial weed is thriving predominantly, to evaluate a weed control effect of the compound. The experiment was carried out from May to June, 2007 in the turf grass field within Korea Research Institute of Bioscience and Biotechnology (52, Ueun-dong, Yusong-gu, Daejon, South Korea). Fourteen days after the chemical application, the turf grass was cut once.

cool season turfgrass = experiment: Turf grass selectivity, summary for cool season turfgrass; type: in vivo; conditions: application amount as low as 3 g ai/ha
Excerpt: Turf mats of Zoysia grass, bentgrass, Kentucky bluegrass, or perennial rye grass known as cool season turfgrass or western grass were purchased and cut into a piece having 10 cm×20 cm size. Then, each piece was transplanted in a rectangular plastic pot (surface area of 300 cm^2) in which sandy loam and mixed top soil (Boo-Nong Top Soil No. 3, for horticultural use) are filled in 1:1 ratio. After the transplantation, the grasses were cut once a week to maintain the blade height at 0.5-1.0 cm and cultivated for one month in a green house of which temperature was kept at 25˜30° C. for daytime and 15˜25° C. for nighttime, respectively. Then, the ‘test chemical’ of the above Examples 1 and 2 or ‘control chemical’ was applied thereto in an amount of 400, 200, 100, 50, 25, 12, 6, 3 g ai/ha. As a “control chemical”, pyrazolsulfuron ethyl wettable agent (manufactured by Dongbu Fine Chemicals; herein after, referred to as ‘control chemical No. 1’) and flazasulfuron (manufactured by Dongbu HiTek; herein after, referred to as ‘control chemical No. 2’), both sulfonylurea herbicides for a turf grass, were used. Application was carried out by using a track sprayer (R&D Sprayer, USA) equipped with Teejet 8002 nozzle (Spraying Systems Co., USA), and the application amount was adjusted to 2,000 L/ha, which is a typical application amount for a golf course in Korea. […]

warm season turf grass = conditions: background statement; zoysiagrass, Burmudagrass; cited from earlier work
cool season turf grass = conditions: background statement; creeping bentgrass, Kentucky bluegrass; cited from earlier work

In the case of `COc1cc(OC)nc(NC(=O)NS(=O)(=O)c2ncccc2C(F)(F)F)n1` [Control chemical No. 2, Flazasulfuron, reference compound], the “phytotoxicity (visual assessment 0-10)” value (Perennial rye grass; 3 g ai/ha, 2 weeks) is reported as 10, the “phytotoxicity (visual assessment 0-10)” value (Perennial rye grass; 3 g ai/ha, 4 weeks) is reported as 10 and the “phytotoxicity (visual assessment 0-10)” value (Perennial rye grass; 6 g ai/ha, 2 weeks) is reported as 10. The “phytotoxicity (visual assessment 0-10)” value (Perennial rye grass; 6 g ai/ha, 4 weeks) was 10, the “phytotoxicity (visual assessment 0-10)” value (Perennial rye grass; 12 g ai/ha, 2 weeks) was 10 and the “phytotoxicity (visual assessment 0-10)” value (Perennial rye grass; 12 g ai/ha, 4 weeks) was 10. For the same compound, the “phytotoxicity (visual assessment 0-10)” value (Perennial rye grass; 25 g ai/ha, 2 weeks) was 10, the “phytotoxicity (visual assessment 0-10)” value (Perennial rye grass; 25 g ai/ha, 4 weeks) was 10 and the “phytotoxicity (visual assessment 0-10)” value (Perennial rye grass; 50 g ai/ha, 2 weeks) was 10. For the same compound, the “phytotoxicity (visual assessment 0-10)” value (Perennial rye grass; 50 g ai/ha, 4 weeks) was 10, the “phytotoxicity (visual assessment 0-10)” value (Perennial rye grass; 100 g ai/ha, 2 weeks) was 10 and the “phytotoxicity (visual assessment 0-10)” value (Perennial rye grass; 100 g ai/ha, 4 weeks) was 10. For the same compound, the “phytotoxicity (visual assessment 0-10)” value (Perennial rye grass; 200 g ai/ha, 2 weeks) was 10, the “phytotoxicity (visual assessment 0-10)” value (Perennial rye grass; 200 g ai/ha, 4 weeks) was 10 and the “phytotoxicity (visual assessment 0-10)” value (Perennial rye grass; 400 g ai/ha, 2 weeks) was 10. The “phytotoxicity (visual assessment 0-10)” value (Perennial rye grass; 400 g ai/ha, 4 weeks) was 10, the “safety to Zoysia japonica” value (Zoysia japonica; 50 g ai/ha or less) was “safe” and the “phytotoxicity (visual assessment 0-10)” value (Zoysia japonica; 3 g ai/ha, 2 weeks) was 0. The “phytotoxicity (visual assessment 0-10)” value (Zoysia japonica; 3 g ai/ha, 4 weeks) was 0, the “phytotoxicity (visual assessment 0-10)” value (Zoysia japonica; 6 g ai/ha, 2 weeks) was 0 and the “phytotoxicity (visual assessment 0-10)” value (Zoysia japonica; 6 g ai/ha, 4 weeks) was 0. The “phytotoxicity (visual assessment 0-10)” value (Zoysia japonica; 12 g ai/ha, 2 weeks) was 0, the “phytotoxicity (visual assessment 0-10)” value (Zoysia japonica; 12 g ai/ha, 4 weeks) was 0 and the “phytotoxicity (visual assessment 0-10)” value (Zoysia japonica; 25 g ai/ha, 2 weeks) was 0. The “phytotoxicity (visual assessment 0-10)” value (Zoysia japonica; 25 g ai/ha, 4 weeks) was 0, the “phytotoxicity (visual assessment 0-10)” value (Zoysia japonica; 50 g ai/ha, 2 weeks) was 1 and the “phytotoxicity (visual assessment 0-10)” value (Zoysia japonica; 50 g ai/ha, 4 weeks) was 1. The “phytotoxicity (visual assessment 0-10)” value (Zoysia japonica; 100 g ai/ha, 2 weeks) was 2, the “phytotoxicity (visual assessment 0-10)” value (Zoysia japonica; 100 g ai/ha, 4 weeks) was 2 and the “phytotoxicity (visual assessment 0-10)” value (Zoysia japonica; 200 g ai/ha, 2 weeks) was 4. The “phytotoxicity (visual assessment 0-10)” value (Zoysia japonica; 200 g ai/ha, 4 weeks) was 3, the “phytotoxicity (visual assessment 0-10)” value (Zoysia japonica; 400 g ai/ha, 2 weeks) was 7 and the “phytotoxicity (visual assessment 0-10)” value (Zoysia japonica; 400 g ai/ha, 4 weeks) was 6. The “efficacy (0-100 scale)” value (Dandelion; Post-emergence, 12 g ai/ha) was 10, the “efficacy (0-100 scale)” value (Dandelion; Post-emergence, 25 g ai/ha) was 30 and the “efficacy (0-100 scale)” value (Dandelion; Post-emergence, 50 g ai/ha) was 40. The “efficacy (0-100 scale)” value (Dandelion; Post-emergence, 100 g ai/ha) was 50, the “efficacy (0-100 scale)” value (Dandelion; Pre-emergence, 12 g ai/ha) was 30 and the “efficacy (0-100 scale)” value (Dandelion; Pre-emergence, 25 g ai/ha) was 40. For the same compound, the “efficacy (0-100 scale)” value (Dandelion; Pre-emergence, 50 g ai/ha) was 50, the “efficacy (0-100 scale)” value (Dandelion; Pre-emergence, 100 g ai/ha) was 70 and the “Effect on Viola arvensis” value (Viola arvensis; After 7 days) was 20. For the same compound, the “Effect on Viola arvensis” value (Viola arvensis; After 14 days) was 50, the “phytotoxicity to cool season turfgrass” value (cool season turfgrass) was “complete withering; also recorded: completely withered” and the “safety to warm season turf grass” value (warm season turf grass) was “have a safety”. For the same compound, the “safety to cool season turf grass” value (cool season turf grass) was “no safety”.
